# Measured values reported in patent US12371428B2 (Exelixis, Inc., priority 2019, dated 2025).
# Counter-ions that a name gives are not always drawn.
# How the values were obtained:
# [1] = target: Human MET (residues 956-1390) (Homo sapiens (Human), UniProt P08581); assay: Human Met kinase assay, HTRF KinEase (Example D-2); type: biochemical; settings: protocol of Example D-2 (other compounds); read-out: c-Met IC50
# How it was run: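 HTRF KinEase assay on MET residues 956-1390 (0.1 ng/well) in buffer with 5 mM MgCl2, 1 mM DTT and 1 mM MnCl2, with biotinylated peptide substrate, ATP at Km, 10 compound concentrations and 3% DMSO final, run 40 min at room temperature. The […] signal was normalized to DMSO and to 1 μM reference compound, and IC50 came from a 4-parameter logistic fit.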
# [2] = target: KDR (phospho-KDR, VEGF165-stimulated HUVEC cells) (Homo sapiens (Human), UniProt P35968); assay: KDR autophosphorylation ELISA in HUVEC cells (Example G); type: cell-based; settings: cellular activity; KDR autophosphorylation ELISA in HUVEC cells
# How it was run: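 Read-out: phospho-KDR in cell lysates by DuoSet IC ELISA, normalised between VEGF-stimulated DMSO wells (100%) and unstimulated wells (0%). Human endothelial cells were starved overnight in serum-free medium, exposed to compound for 1 h, and then pulsed with 100 ng/mL VEGF165 for 5 min.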
# Chain of Human MET (residues 956-1390) (P08581 956-1390): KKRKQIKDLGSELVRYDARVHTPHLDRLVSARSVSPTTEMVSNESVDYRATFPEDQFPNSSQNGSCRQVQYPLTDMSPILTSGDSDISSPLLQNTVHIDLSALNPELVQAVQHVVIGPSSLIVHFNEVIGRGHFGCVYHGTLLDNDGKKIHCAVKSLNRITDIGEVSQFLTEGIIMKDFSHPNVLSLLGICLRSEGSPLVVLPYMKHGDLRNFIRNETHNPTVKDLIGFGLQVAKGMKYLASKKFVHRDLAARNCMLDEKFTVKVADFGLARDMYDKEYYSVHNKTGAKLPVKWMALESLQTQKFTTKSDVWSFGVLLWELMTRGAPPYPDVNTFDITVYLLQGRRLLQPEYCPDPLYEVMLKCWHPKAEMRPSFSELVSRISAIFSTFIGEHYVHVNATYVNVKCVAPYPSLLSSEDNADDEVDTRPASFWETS
# Chain of KDR (phospho-KDR, VEGF165-stimulated HUVEC cells) (P35968 20-1356): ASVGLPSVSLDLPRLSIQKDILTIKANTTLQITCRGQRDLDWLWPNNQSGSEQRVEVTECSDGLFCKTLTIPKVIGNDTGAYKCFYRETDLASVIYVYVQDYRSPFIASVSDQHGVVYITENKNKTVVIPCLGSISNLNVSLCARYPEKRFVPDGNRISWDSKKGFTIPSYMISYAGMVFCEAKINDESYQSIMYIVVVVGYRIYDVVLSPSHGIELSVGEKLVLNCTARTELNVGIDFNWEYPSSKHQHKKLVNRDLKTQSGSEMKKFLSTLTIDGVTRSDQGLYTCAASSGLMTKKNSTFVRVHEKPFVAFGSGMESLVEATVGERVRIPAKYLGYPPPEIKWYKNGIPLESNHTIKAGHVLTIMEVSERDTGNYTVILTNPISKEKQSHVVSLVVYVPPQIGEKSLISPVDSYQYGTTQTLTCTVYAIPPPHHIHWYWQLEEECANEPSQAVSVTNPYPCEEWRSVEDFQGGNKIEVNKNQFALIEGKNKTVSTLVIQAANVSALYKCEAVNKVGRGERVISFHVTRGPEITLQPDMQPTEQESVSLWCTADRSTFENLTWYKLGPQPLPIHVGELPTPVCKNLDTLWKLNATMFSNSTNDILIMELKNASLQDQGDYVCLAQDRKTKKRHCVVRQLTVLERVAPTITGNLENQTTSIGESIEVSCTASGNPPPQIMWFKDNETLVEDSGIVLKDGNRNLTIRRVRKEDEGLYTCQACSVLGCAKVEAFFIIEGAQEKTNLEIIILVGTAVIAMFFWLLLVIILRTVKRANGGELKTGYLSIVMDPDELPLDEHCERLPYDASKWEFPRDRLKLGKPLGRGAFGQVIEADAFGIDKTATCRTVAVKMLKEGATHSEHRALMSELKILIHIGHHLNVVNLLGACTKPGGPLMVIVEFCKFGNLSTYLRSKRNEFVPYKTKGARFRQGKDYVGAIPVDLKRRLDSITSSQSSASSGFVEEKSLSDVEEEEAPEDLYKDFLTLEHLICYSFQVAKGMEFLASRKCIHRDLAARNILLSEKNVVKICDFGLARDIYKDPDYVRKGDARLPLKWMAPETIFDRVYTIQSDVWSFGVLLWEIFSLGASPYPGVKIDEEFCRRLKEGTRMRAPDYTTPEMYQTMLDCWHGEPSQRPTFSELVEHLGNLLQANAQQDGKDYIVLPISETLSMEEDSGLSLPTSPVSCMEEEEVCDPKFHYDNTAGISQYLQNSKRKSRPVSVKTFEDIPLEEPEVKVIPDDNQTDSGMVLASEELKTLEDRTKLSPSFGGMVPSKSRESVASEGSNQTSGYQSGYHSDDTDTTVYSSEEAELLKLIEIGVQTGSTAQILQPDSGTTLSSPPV
SMILES,IC50 [1],IC50 [2]
"COc1cnc2c(Oc3ccc(NC(=O)c4nnc(C)c(-c5ccc(F)cc5C)c4O)cc3F)ccnc2c1 (single isomer, unassigned) [Compound 249B, N-[3-Fluoro-4-[(7-methoxy-1,5-naphthyridin-4-yl)oxy]phenyl]-5-(4-fluoro-2-methylphenyl)-4-hydroxy-6-methylpyridazine-3-carboxamide]",< 0.1 µM,< 0.1 µM
"COc1cnc2c(Oc3ccc(NC(=O)c4nnc(C)c(-c5ccc(F)cc5C)c4O)cc3F)ccnc2c1 (single isomer, unassigned) [Compound 249C, N-[3-Fluoro-4-[(7-methoxy-1,5-naphthyridin-4-yl)oxy]phenyl]-5-(4-fluoro-2-methylphenyl)-4-hydroxy-6-methylpyridazine-3-carboxamide]",< 0.1 µM,< 0.1 µM
"COc1cc2nccc(Oc3ccc(NC(=O)c4cn(C(C)C)c(C)c(-c5cccc(F)c5)c4=O)cc3F)c2nc1OC [Compound 30, N-[4-[(6,7-Dimethoxy-1,5-naphthyridin-4-yl)oxy]-3-fluorophenyl]-5-(3-fluorophenyl)-6-methyl-4-oxo-1-propan-2-ylpyridine-3-carboxamide hydrochloride]",< 0.1 µM,> 0.3 µM
"COc1ccc(-c2c(C)n(C(C)C)cc(C(=O)Nc3ccc(Oc4ccnc5cc(OC)c(OC)nc45)c(F)c3)c2=O)cc1 [Compound 31, N-[4-[(6,7-dimethoxy-1,5-naphthyridin-4-yl)oxy]-3-fluorophenyl]-5-(4-methoxyphenyl)-6-methyl-4-oxo-1-propan-2-ylpyridine-3-carboxamide hydrochloride]",< 0.1 µM,> 0.3 µM
"COc1cc2nccc(Oc3ccc(NC(=O)c4cn(C(C)C)c(C)c(-c5ccc(F)cc5C)c4=O)cc3F)c2nc1OC [Compound 32, N-[4-[(6,7-Dimethoxy-1,5-naphthyridin-4-yl)oxy]-3-fluorophenyl]-5-(4-fluoro-2-methylphenyl)-6-methyl-4-oxo-1-propan-2-ylpyridine-3-carboxamide hydrochloride]",< 0.1 µM,> 0.3 µM
"COc1cc2nccc(Oc3ccc(NC(=O)c4cn(C)cc(-c5ccccc5)c4=O)cc3F)c2nc1OC [Compound 33, N-[4-[(6,7-Dimethoxy-1,5-naphthyridin-4-yl)oxy]-3-fluorophenyl]-1-methyl-4-oxo-5-phenylpyridine-3-carboxamide hydrochloride]",< 0.1 µM,< 0.1 µM
"COc1cc2nccc(Oc3ccc(NC(=O)c4cn(C)cc(-c5cccc(F)c5)c4=O)cc3F)c2nc1OC [Compound 35, N-[4-[(6,7-Dimethoxy-1,5-naphthyridin-4-yl)oxy]-3-fluorophenyl]-5-(3-fluorophenyl)-1-methyl-4-oxopyridine-3-carboxamide hydrochloride]",< 0.1 µM,< 0.1 µM
"COc1cc2nccc(Oc3ccc(NC(=O)c4cn(C)c(C)c(-c5ccccc5)c4=O)cc3F)c2nc1OC [Compound 36, N-[4-[(6,7-Dimethoxy-1,5-naphthyridin-4-yl)oxy]-3-fluorophenyl]-1,6-dimethyl-4-oxo-5-phenylpyridine-3-carboxamide hydrochloride]",< 0.1 µM,0.1 to 0.3 µM
"COc1cc2nccc(Oc3ccc(NC(=O)c4cn(C)c(C)c(-c5cccc(F)c5)c4=O)cc3F)c2nc1OC [Compound 37, N-[4-[(6,7-Dimethoxy-1,5-naphthyridin-4-yl)oxy]-3-fluorophenyl]-5-(3-fluorophenyl)-1,6-dimethyl-4-oxopyridine-3-carboxamide hydrochloride]",< 0.1 µM,0.1 to 0.3 µM
"COc1cnc2c(Oc3ccc(NC(=O)c4cnc(C)c(-c5ccc(F)cc5C)c4O)cc3)ccnc2c1 [Compound 176, 5-(4-Fluoro-2-methylphenyl)-4-hydroxy-N-[4-[(7-methoxy-1,5-naphthyridin-4-yl)oxy]phenyl]-6-methylpyridine-3-carboxamide]",< 0.1 µM,< 0.1 µM
"COc1cc2nccc(Oc3ccc(NC(=O)c4c(C)nc(C)c(-c5ccc(F)cc5C)c4O)cc3F)c2nc1OC [Compound 177, N-[4-[(6,7-Dimethoxy-1,5-naphthyridin-4-yl)oxy]-3-fluorophenyl]-5-(4-fluoro-2-methylphenyl)-4-hydroxy-2,6-dimethylpyridine-3-carboxamide]",< 0.1 µM,< 0.1 µM
"COc1cnc2c(Oc3ccc(NC(=O)c4c(C)nc(C)c(-c5ccc(F)cc5C)c4O)cc3F)ccnc2c1 [Compound 178, N-[3-Fluoro-4-[(7-methoxy-1,5-naphthyridin-4-yl)oxy]phenyl]-5-(4-fluoro-2-methylphenyl)-4-hydroxy-2,6-dimethylpyridine-3-carboxamide]",< 0.1 µM,< 0.1 µM
"CCc1nc(C)c(-c2ccc(F)cc2)c(O)c1C(=O)Nc1ccc(Oc2ccnc3cc(OC)c(OC)nc23)c(F)c1 [Compound 179, N-[4-[(6,7-Dimethoxy-1,5-naphthyridin-4-yl)oxy]-3-fluorophenyl]-2-ethyl-5-(4-fluorophenyl)-4-hydroxy-6-methylpyridine-3-carboxamide]",< 0.1 µM,< 0.1 µM
"CCc1nc(C)c(-c2ccc(F)cc2)c(O)c1C(=O)Nc1ccc(Oc2ccnc3cc(OC)cnc23)c(F)c1 [Compound 180, 2-Ethyl-N-[3-fluoro-4-[(7-methoxy-1,5-naphthyridin-4-yl)oxy]phenyl]-5-(4-fluorophenyl)-4-hydroxy-6-methylpyridine-3-carboxamide]",< 0.1 µM,< 0.1 µM
"COc1cnc2c(Oc3ccc(NC(=O)c4cn(C)c(C)c(-c5ccc(F)cc5C)c4=O)cc3F)ccnc2c1 [Compound 181, N-[3-Fluoro-4-[(7-methoxy-1,5-naphthyridin-4-yl)oxy]phenyl]-5-(4-fluoro-2-methylphenyl)-1,6-dimethyl-4-oxopyridine-3-carboxamide]",< 0.1 µM,> 0.3 µM
"CCc1nc(C)c(-c2ccc(F)cc2)c(O)c1C(=O)Nc1ccc(Oc2ccnc3ccc(OC)nc23)c(F)c1 [Compound 182, 2-Ethyl-N-[3-fluoro-4-[(6-methoxy-1,5-naphthyridin-4-yl)oxy]phenyl]-5-(4-fluorophenyl)-4-hydroxy-6-methylpyridine-3-carboxamide]",< 0.1 µM,< 0.1 µM
"COc1ccc2nccc(Oc3ccc(NC(=O)c4cn(C)c(C)c(-c5ccc(F)cc5C)c4=O)cc3F)c2n1 [Compound 183, N-[3-Fluoro-4-[(6-methoxy-1,5-naphthyridin-4-yl)oxy]phenyl]-5-(4-fluoro-2-methylphenyl)-1,6-dimethyl-4-oxopyridine-3-carboxamide]",< 0.1 µM,> 0.3 µM
"COCc1nc(C)c(-c2ccc(F)cc2)c(O)c1C(=O)Nc1ccc(Oc2ccnc3cc(OC)c(OC)nc23)c(F)c1 [Compound 184, N-[4-[(6,7-Dimethoxy-1,5-naphthyridin-4-yl)oxy]-3-fluorophenyl]-5-(4-fluorophenyl)-4-hydroxy-2-(methoxymethyl)-6-methylpyridine-3-carboxamide]",< 0.1 µM,< 0.1 µM
"COCc1nc(C)c(-c2ccc(F)cc2)c(O)c1C(=O)Nc1ccc(Oc2ccnc3cc(OC)cnc23)cc1 [Compound 185, 5-(4-Fluorophenyl)-4-hydroxy-2-(methoxymethyl)-N-[4-[(7-methoxy-1,5-naphthyridin-4-yl)oxy]phenyl]-6-methylpyridine-3-carboxamide]",< 0.1 µM,< 0.1 µM
"COCc1nc(C)c(-c2ccc(F)cc2)c(O)c1C(=O)Nc1ccc(Oc2ccnc3cc(OC)cnc23)c(F)c1 [Compound 186, N-[3-Fluoro-4-[(7-methoxy-1,5-naphthyridin-4-yl)oxy]phenyl]-5-(4-fluorophenyl)-4-hydroxy-2-(methoxymethyl)-6-methylpyridine-3-carboxamide]",< 0.1 µM,< 0.1 µM
"CCc1nc(C)c(-c2ccc(F)cc2)c(O)c1C(=O)Nc1ccc(Oc2ccnc3cc(OC)cnc23)cc1 [Compound 188, 2-Ethyl-5-(4-fluorophenyl)-4-hydroxy-N-[4-[(7-methoxy-1,5-naphthyridin-4-yl)oxy]phenyl]-6-methylpyridine-3-carboxamide]",< 0.1 µM,< 0.1 µM
"COCc1nc(C)c(-c2ccc(F)cc2)c(O)c1C(=O)Nc1ccc(Oc2ccnc3ccc(OC)nc23)c(F)c1 [Compound 189, N-[3-Fluoro-4-[(6-methoxy-1,5-naphthyridin-4-yl)oxy]phenyl]-5-(4-fluorophenyl)-4-hydroxy-2-(methoxymethyl)-6-methylpyridine-3-carboxamide]",< 0.1 µM,< 0.1 µM
"COCc1nc(C)c(-c2ccc(F)cc2)c(O)c1C(=O)Nc1ccc(Oc2ccnc3cc(OC)c(OC)nc23)cc1 [Compound 190, N-[4-[(6,7-Dimethoxy-1,5-naphthyridin-4-yl)oxy]phenyl]-5-(4-fluorophenyl)-4-hydroxy-2-(methoxymethyl)-6-methylpyridine-3-carboxamide]",< 0.1 µM,< 0.1 µM
"COCc1nc(C)c(-c2ccc(F)cc2C)c(O)c1C(=O)Nc1ccc(Oc2ccnc3cc(OC)c(OC)nc23)c(F)c1 [Compound 191, N-[4-[(6,7-Dimethoxy-1,5-naphthyridin-4-yl)oxy]-3-fluorophenyl]-5-(4-fluoro-2-methylphenyl)-4-hydroxy-2-(methoxymethyl)-6-methylpyridine-3-carboxamide]",< 0.1 µM,< 0.1 µM
